Test results taken from patent US12583858B2 (Genentech, Inc., priority 2015, dated 2026).

The molecules below were run against T1, TDO2 (Homo sapiens, UniProt P48775) (assay: TDO2 cell assay (NFK GreenScreen, SW48 cells)). Conditions: SW48 cells (high TDO expressing), 200 uM tryptophan, 24 hours; Table 3; read-out: TDO2 Cell Fluor EC50.
T1 construct: decreased levels of NFK in SW48 cells (high TDO expressing cells)
Format: cell-based

T1 sequence (P48775 whole entry): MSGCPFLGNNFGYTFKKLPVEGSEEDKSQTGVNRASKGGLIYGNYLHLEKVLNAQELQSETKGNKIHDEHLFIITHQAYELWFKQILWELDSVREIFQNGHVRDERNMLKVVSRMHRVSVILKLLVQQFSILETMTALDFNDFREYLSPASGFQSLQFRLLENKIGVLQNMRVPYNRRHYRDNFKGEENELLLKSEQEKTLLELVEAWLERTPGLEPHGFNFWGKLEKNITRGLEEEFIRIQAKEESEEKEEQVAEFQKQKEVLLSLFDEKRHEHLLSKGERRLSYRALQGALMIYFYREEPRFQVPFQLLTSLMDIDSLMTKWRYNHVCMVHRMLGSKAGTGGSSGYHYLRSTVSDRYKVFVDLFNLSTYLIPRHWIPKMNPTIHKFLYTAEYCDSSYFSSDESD

EC50 [µM] | SMILES
3.7 | NS(=O)(=O)N1CC[C@@H]([C@H]2c3ccccc3-c3cncn32)[C@H](O)C1 (single isomer, unassigned) [Example 39b]
> 25 | NS(=O)(=O)N1CC[C@@H]([C@@H]2c3ccccc3-c3cncn32)[C@H](O)C1 (single isomer, unassigned) [Example 39c]
0.056 | NS(=O)(=O)N1CC[C@@H]([C@@H]2c3ccccc3-c3cncn32)[C@H](O)C1 (single isomer, unassigned) [Example 39d]
6.4 | CCS(=O)(=O)N1CC(O)C(C2c3ccccc3-c3cncn32)C1 (single isomer, unassigned) [Example 40a]
16 | CCS(=O)(=O)N1CC(O)C(C2c3ccccc3-c3cncn32)C1 (single isomer, unassigned) [Example 40b]
> 25 | CCS(=O)(=O)N1CC(O)C(C2c3ccccc3-c3cncn32)C1 (single isomer, unassigned) [Example 40c]
> 25 | CCS(=O)(=O)N1CC(O)C(C2c3ccccc3-c3cncn32)C1 (single isomer, unassigned) [Example 40d]
> 25 | CC(C)(C)OC(=O)N1CC2(CC(C3c4ccccc4-c4cncn43)C2O)C1 (single isomer, unassigned) [Example 41a, tert-butyl 7-hydroxy-6-(5H-imidazo[1,5-b]isoindol-5-yl)-2-azaspiro[3.3]heptane-2-carboxylate]
0.8 | CC(C)(C)OC(=O)N1CC2(CC(C3c4ccccc4-c4cncn43)C2O)C1 (single isomer, unassigned) [Example 41b, tert-butyl 7-hydroxy-6-(5H-imidazo[1,5-b]isoindol-5-yl)-2-azaspiro[3.3]heptane-2-carboxylate]
23 | CC(C)(C)OC(=O)N1CC2(CC(C3c4ccccc4-c4cncn43)C2O)C1 (single isomer, unassigned) [Example 41c, tert-butyl 7-hydroxy-6-(5H-imidazo[1,5-b]isoindol-5-yl)-2-azaspiro[3.3]heptane-2-carboxylate]
3.2 | CC(C)(C)OC(=O)N1CC2(CC(C3c4ccccc4-c4cncn43)C2O)C1 (single isomer, unassigned) [Example 41d, tert-butyl 7-hydroxy-6-(5H-imidazo[1,5-b]isoindol-5-yl)-2-azaspiro[3.3]heptane-2-carboxylate]
0.62 | CC(C)(C)OC(=O)N1CC2(CC(C3c4ccccc4-c4cncn43)C2O)C1 (single isomer, unassigned) [Example 41e, tert-butyl 7-hydroxy-6-(5H-imidazo[1,5-b]isoindol-5-yl)-2-azaspiro[3.3]heptane-2-carboxylate]
17 | CC(C)(C)OC(=O)N1CC2(CC(C3c4ccccc4-c4cncn43)C2O)C1 (single isomer, unassigned) [Example 41f, tert-butyl 7-hydroxy-6-(5H-imidazo[1,5-b]isoindol-5-yl)-2-azaspiro[3.3]heptane-2-carboxylate]
> 25 | CC(C)(C)OC(=O)N1CC2(CC(C3c4ccccc4-c4cncn43)C2O)C1 (single isomer, unassigned) [Example 41g, tert-butyl 7-hydroxy-6-(5H-imidazo[1,5-b]isoindol-5-yl)-2-azaspiro[3.3]heptane-2-carboxylate]
0.75 | CC(C)(C)OC(=O)N1CC2(CC(C3c4ccccc4-c4cncn43)C2O)C1 (single isomer, unassigned) [Example 41h, tert-butyl 7-hydroxy-6-(5H-imidazo[1,5-b]isoindol-5-yl)-2-azaspiro[3.3]heptane-2-carboxylate]
0.35 | OC1(C2c3ccccc3-c3cncn32)CCC1 (single isomer, unassigned) [Example 47a]
> 25 | OC1(C2c3ccccc3-c3cncn32)CCC1 (single isomer, unassigned) [Example 47b]

EC50 [µM] | SMILES
18 | OCC(O)C1c2ccccc2-c2cncn21 (single isomer, unassigned) [Example 49a, 1-(5H-imidazo[5,1-a]isoindol-5-yl)ethane-1,2-diol]
19.6 | OCC(O)C1c2ccccc2-c2cncn21 (single isomer, unassigned) [Example 49b, 1-(5H-imidazo[5,1-a]isoindol-5-yl)ethane-1,2-diol]
> 25 | OCC(O)C1c2ccccc2-c2cncn21 (single isomer, unassigned) [Example 49c, 1-(5H-imidazo[5,1-a]isoindol-5-yl)ethane-1,2-diol]
1.44 | OCC(O)C1c2ccccc2-c2cncn21 (single isomer, unassigned) [Example 49d, 1-(5H-imidazo[5,1-a]isoindol-5-yl)ethane-1,2-diol]
> 25 | CC(C)C(O)C1c2ccccc2-c2cncn21 (single isomer, unassigned) [Example 51a]
> 25 | CC(C)C(O)C1c2ccccc2-c2cncn21 (single isomer, unassigned) [Example 51b]
0.11 | CC(C)C(O)C1c2ccccc2-c2cncn21 (single isomer, unassigned) [Example 51c]
14 | CC(C)C(O)C1c2ccccc2-c2cncn21 (single isomer, unassigned) [Example 51d]
0.24 | OC(C1CC1)C1c2ccccc2-c2cncn21 (single isomer, unassigned) [Example 52a]
23.7 | OC(C1CC1)C1c2ccccc2-c2cncn21 (single isomer, unassigned) [Example 52b]
> 25 | OC(C1CC1)C1c2ccccc2-c2cncn21 (single isomer, unassigned) [Example 52c]
2 | OC(C1CC1)C1c2ccccc2-c2cncn21 (single isomer, unassigned) [Example 52d]
0.37 | OC1c2ccnn2CCC1C1c2ccccc2-c2cncn21 (single isomer, unassigned) [Example 56b]
3.8 | OC1c2ccnn2CCC1C1c2ccccc2-c2cncn21 (single isomer, unassigned) [Example 56f]
> 25 | OC1c2ccnn2CCC1C1c2ccccc2-c2cncn21 (single isomer, unassigned) [Example 56g]
5 | OC1C(C2c3ccccc3-c3cncn32)CC12CCOCC2 (single isomer, unassigned) [Example 57b]

Further lines, the molecule ahead of its results:

SMILES | EC50 [µM]
OC1COCC1C1c2ccc(F)cc2-c2cncn21 (single isomer, unassigned) [Example 30d] | > 25
OC1c2cccnc2CCC1C1c2ccccc2-c2cncn21 (single isomer, unassigned) [Example 31c] | 17
OC1c2cccnc2CCC1C1c2ccccc2-c2cncn21 (single isomer, unassigned) [Example 31d] | > 25
OC1c2cccnc2CCC1C1c2ccccc2-c2cncn21 (single isomer, unassigned) [Example 31e] | 1.1
OC1c2cccnc2CCC1C1c2ccccc2-c2cncn21 (single isomer, unassigned) [Example 31f] | 0.082
N[C@@H]1COC[C@@H]1[C@H]1c2ccccc2-c2cncn21 (single isomer, unassigned) [Example 32c] | 5.2
OC1COCCC1C1c2ccc(F)cc2-c2cncn21 (single isomer, unassigned) [Example 33a] | > 25
OC1COCCC1C1c2ccc(F)cc2-c2cncn21 (single isomer, unassigned) [Example 33c] | 3.5
OC1COCCC1C1c2ccc(F)cc2-c2cncn21 (single isomer, unassigned) [Example 33d] | > 25
O[C@@H]1CCOC[C@H]1[C@H]1c2ccc(F)cc2-c2cncn21 (single isomer, unassigned) [Example 34a] | 1.8
O[C@@H]1CCOC[C@H]1[C@H]1c2ccc(F)cc2-c2cncn21 (single isomer, unassigned) [Example 34b] | > 25
CC1(O)CCC1C1c2ccccc2-c2cncn21 (single isomer, unassigned) [Example 35a] | > 25
CC1(O)CCC1C1c2ccccc2-c2cncn21 (single isomer, unassigned) [Example 35b] | 0.45
CC1(O)CCC1C1c2ccccc2-c2cncn21 (single isomer, unassigned) [Example 35c] | > 25
CC1(O)CCC1C1c2ccccc2-c2cncn21 (single isomer, unassigned) [Example 35d] | 0.35
CS(=O)(=O)c1ccc2c(c1)CCC(C1c3ccccc3-c3cncn31)C2O (single isomer, unassigned) [Example 36a] | 1.3
CS(=O)(=O)c1ccc2c(c1)CCC(C1c3ccccc3-c3cncn31)C2O (single isomer, unassigned) [Example 36b] | 0.058
CS(=O)(=O)c1ccc2c(c1)CCC(C1c3ccccc3-c3cncn31)C2O (single isomer, unassigned) [Example 36c] | 7.4
CS(=O)(=O)c1ccc2c(c1)CCC(C1c3ccccc3-c3cncn31)C2O (single isomer, unassigned) [Example 36d] | 3.8
CS(=O)(=O)c1ccc2c(c1)CCC(C1c3ccccc3-c3cncn31)C2O (single isomer, unassigned) [Example 36e] | 2.7
CS(=O)(=O)c1ccc2c(c1)CCC(C1c3ccccc3-c3cncn31)C2O (single isomer, unassigned) [Example 36f] | 0.14
CS(=O)(=O)c1ccc2c(c1)CCC(C1c3ccccc3-c3cncn31)C2O (single isomer, unassigned) [Example 36g] | 19
CS(=O)(=O)c1ccc2c(c1)CCC(C1c3ccccc3-c3cncn31)C2O (single isomer, unassigned) [Example 36h] | 0.98
O=S1(=O)CC(O)C(C2c3ccccc3-c3cncn32)C1 (single isomer, unassigned) [Example 38a] | 16
O=S1(=O)CC(O)C(C2c3ccccc3-c3cncn32)C1 (single isomer, unassigned) [Example 38b] | 0.15
O=S1(=O)CC(O)C(C2c3ccccc3-c3cncn32)C1 (single isomer, unassigned) [Example 38c] | 22
O=S1(=O)CC(O)C(C2c3ccccc3-c3cncn32)C1 (single isomer, unassigned) [Example 38d] | 3.8
